In general, IC50 refers to the point on the concentration scale where inhibition reaches its midpoint. A lower IC50 goes with greater potency. One may read the EC50 as the concentration giving half of the maximal effect. High values mean lower potency in that assay, low ones higher potency in that assay.

Here are results for ten compounds from patent US6251950A, “Aliphatic propargylamines as cellular rescue agents” (University of Saskatchewan, priority 1998, dated 2001).

For series [1] the following is noted: low concentrations; cited from earlier work.
For series [2], the system named is pyramidal neurons in the hippocampus (CA1 neurons). Description: Hypoxia/ischaemia model, CA1 neuron survival. In kind it is in vivo, rat. The conditions noted are these: for mean survival of CA1 neurons, percentage of vehicle treated controls (Table 2) / response vs control in vivo at 0.1 µmol/kg: 0.1 μmol/kg, vehicle = 100%, ± sem (n = 6-10); for mean survival of CA1 neurons, percentage of vehicle treated controls (Table 2) / response vs control in vivo at 0.1 µmol/kg / activity in the hypoxia/ischaemia model: s.c.; for mean survival of CA1 neurons, percentage of vehicle treated controls (Table 2): **P < 0.01; for response vs control in vivo at 0.1 µmol/kg: *P < 0.05, **P < 0.01, read-out: Percentage survival of CA1 neurones, of vehicle treated controls (Table 4).
Description: This model produces selective, unilateral lesioning of the pyramidal neurons in the hippocampus which involves neuronal apoptosis.
Values are the mean survival of CA1 neurons expressed as a percentage of
vehicle treated controls (vehicle = 100%) ± sem (n = 6 - 10).

For a further series, the system named is LNGFR mRNA, PC12 cells. Kind of series: LNGFR mRNA levels in PC12 cells (Northern Blot). Type of series: cell-based. As for the experimental part:
The LNGFR mRNA levels were detected by Northern Blots using total RNA from cultured PC12 cells treated with R-2HPA for 24 hours. The blots were hybridized with LNGFR cDNA probe labelled with P^32 dCTP and the auto radiographs were scanned by a Beckman spectrometer.

Another series has as its system hippocampal CA1 neurons. Description: Kainic acid-induced neuronal damage. Type of series: in vivo, rat. The settings on record: in words.
Series [3] concerns SOD1 mRNA, PC12 cells. Description: SOD1 mRNA levels in PC12 cells (Northern Blot). In kind it is cell-based. The protocol: PC12 cells were used to study the gene regulation of SOD (copper, zinc-dependent type, i.e. SOD1) by (R)-2-heptylpropargylamine (R-2HPA).
The SOD1 mRNA levels were detected by Northern Blots using total RNA from cultured PC12 cells treated with R-2HPA for 24 hours. The blots were hybridized with SOD1 cDNA probe labelled with P^32 dCTP and the auto radiographs were scanned by a Beckman spectrometer.

The target in the next series is T1, mouse brain MAO-B (Mus musculus, UniProt Q8BW75).
T1 construct: Striata were dissected from the brain two hours after i.p. administration of the drugs; from tissue; host or cells: mouse brain striata, dissected two hours after i.p. dosing
T1 sequence (Q8BW75 1-520): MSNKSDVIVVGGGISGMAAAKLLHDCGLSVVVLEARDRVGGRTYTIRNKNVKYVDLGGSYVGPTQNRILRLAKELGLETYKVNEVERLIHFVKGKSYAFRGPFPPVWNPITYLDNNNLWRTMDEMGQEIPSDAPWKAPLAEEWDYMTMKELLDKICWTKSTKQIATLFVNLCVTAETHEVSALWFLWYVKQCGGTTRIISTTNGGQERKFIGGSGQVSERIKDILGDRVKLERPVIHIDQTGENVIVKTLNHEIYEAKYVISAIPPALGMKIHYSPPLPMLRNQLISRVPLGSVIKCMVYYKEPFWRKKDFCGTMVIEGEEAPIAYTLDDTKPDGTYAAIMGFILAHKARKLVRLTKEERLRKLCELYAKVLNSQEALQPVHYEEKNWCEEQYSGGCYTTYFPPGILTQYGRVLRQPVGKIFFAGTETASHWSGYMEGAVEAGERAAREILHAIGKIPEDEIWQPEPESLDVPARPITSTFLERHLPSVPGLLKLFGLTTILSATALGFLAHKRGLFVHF
Description: Inhibition in vivo of brain MAO-B activity after intraperitoneal administration. The settings on record: for Comparison to most effective inhibitor: in vivo, relative to R-2HMP; for ED50: mouse, ip, 2 h, read-out: IC50 (mg/Kg) (MAO-B, in vivo). The protocol:
Results are the average of two independent triplicate experiments for each i.p. dose. The doses were 0.5, 1, 2, 5, 10, 20 mg/Kg. Striata were dissected from the brain two hours after i.p. administration of the drugs. MAO-B activities were then determined immediately (Yu et al 1992). The values were estimated from dose-response curves.

Another series deals with HSP70. Description: Kainate-induced HSP70 expression in hippocampal CA1 field. In kind it is in vivo, rat. As for the experimental part:
(§1) The levels of both proteins were measured 24 h after a single injection of kainate (10 mg/Kg,i.p). The levels (assessed by quantitative immunohistochemical imaging) can be seen in Table 5.
(§2) Values are means ± sem (n = 5)
(§3) Kainate (10 mg/Kg, i.p.); Rats with seizures between stages IV severe to V
(§4) severe were used. R-2HPA (0.25 mg/Kg, s.c.) was administered 4 h after
(§5) kainate injection; HSP70 and c-Fos expression were assessed 24 h after
(§6) kainate treatment (for details of method please see Zhang et al, 1996).
(§7) Statistics were performed using ANOVA followed by Newman-Keuls multiple

The subject of the next series is c-Fos. Kind of series: Kainate-induced delayed c-Fos expression in hippocampal CA1 field. Type of series: in vivo, rat. As for the experimental part: as §1, §2, §3, §4, §5, §6, §7
The target in series [4] is T2, rat liver mitochondrial monoamine oxidase B (Rattus norvegicus, UniProt P19643).
T2 sequence (P19643 1-520): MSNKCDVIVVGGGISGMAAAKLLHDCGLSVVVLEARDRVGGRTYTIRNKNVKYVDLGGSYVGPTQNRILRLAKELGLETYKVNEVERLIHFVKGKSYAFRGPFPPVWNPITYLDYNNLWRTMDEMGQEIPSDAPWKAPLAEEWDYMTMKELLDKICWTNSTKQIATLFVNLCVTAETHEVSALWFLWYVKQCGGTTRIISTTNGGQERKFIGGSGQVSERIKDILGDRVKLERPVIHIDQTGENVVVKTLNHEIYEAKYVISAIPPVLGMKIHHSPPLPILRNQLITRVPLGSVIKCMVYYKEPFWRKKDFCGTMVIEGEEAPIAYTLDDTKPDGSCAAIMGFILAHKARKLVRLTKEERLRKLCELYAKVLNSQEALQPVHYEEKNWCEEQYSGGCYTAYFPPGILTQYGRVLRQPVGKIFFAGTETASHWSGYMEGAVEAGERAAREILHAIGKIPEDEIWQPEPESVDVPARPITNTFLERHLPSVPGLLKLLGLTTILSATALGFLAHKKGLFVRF
Description: biochemical. In kind it is biochemical. The conditions noted are these: for Comparison to most effective MAO-B inhibitor in group: in vitro, relative to most effective inhibitor in group; for IC50: substrate PE (β-phenylethylamine) 1.9 × 10^-5 M, average of at least 2 independent triplicate experiments. As for the experimental part: Enzyme activity was assessed using a radiometric method as previously described (Yu et al, 1992).

The next series relates to damaged neurons. The conditions noted are these: cited from earlier work.
Series [5] deals with SOD1 mRNA, PC12 cells. The conditions noted are these: Li, et al., 1995; cited from earlier work.
A short description of a further series: in vitro. In kind it is cell-based, Wistar rat. The settings on record: rat, cerebellar granule cells. The source says: (§8) Cultures of cerebellar granule cells (CGC) can be induced into apoptosis by the addition of a high concentration of cytosine arabinoside (Ara C) (Dessi et al., 1995) and it has been shown that this is a p53 dependent apoptosis (Enokido et al, 1996). We have measured the antiapoptotic effect of N-(2-heptyl)propargylamine (2HPA) using this system and compared the results to those obtained with previously known aliphatic methyl propargylamines and deprenyl.
(§9) Cultures of CGC were obtained from 6-8 day old Wistar rat pups. Cultures were grown on glass in 35 mm petri dishes for 3 days and then used for experiments. 20 μl aliquots of drug solutions (Ara C, anti-apoptotic drugs, drug vehicles) were added to the medium of the cultures. 24 Hours later the cultures were fixed with FAM, and stained with bis-benzamide. Normal and apoptotic nuclei were counted to a total of 90-120 cells per culture. […] Concentrations in excess of 150 μM caused detachment of the cultures.
(§10) Compounds were added at the following concentrations: Ara C, 100 μM,

Series [6] deals with cerebellar granule cells (CGC). Kind of series: in vitro. In kind it is cell-based, Wistar rat.
Text: as §8, §9, §10

The test system of another series is neurons. The settings on record: cited from earlier work.
[7] abbreviates: after kainate, rat hippocampal CA1 region.
Setting [8] is: kainate 10 mg/Kg i.p., R-2HPA 0.25 mg/Kg s.c. 4 h after, assessed 24 h after kainate, mean ± sem (n = 5), *p < 0.01.
[9] abbreviates: kainate 10 mg/Kg i.p., 24 h, mean ± sem (n = 5).

Read-outs that look alike come from different tables or passages of the source.

For `CC(N)Cc1ccccc1` (stereo not drawn) [amphetamine], the neurotoxicity result in series [1] is “neurotoxic even at quite low concentrations”.
Turning to `C#CCN[C@H](C)CCCCC.Cl` [Example R-2HPA, (R)-N-2-Heptylpropargylamine hydrochloride], in [2], the “mean survival of CA1 neurons, percentage of vehicle treated controls (Table 2)” value came to 320 ± 48% and the “activity in the hypoxia/ischaemia model” value is “Most active”. Moreover, in series [2] (Rattus norvegicus, Neuron, sc), the response vs control in vivo at 0.1 µmol/kg was 320 ± 48%. In [2] (oral), the “potency following oral administration versus R-2HMP” value is on record as “more potent than its aliphatic methyl propargylamine analogue, R-2HMP”. Further, in the series with LNGFR mRNA, PC12 cells (PC12 cells), the “LNGFR mRNA” value is “downregulated LNGFR mRNA”. Besides, in the series with LNGFR mRNA, PC12 cells (Rattus norvegicus, PC-12, 1 μM, 24 hours, Mean ± SD (n = 4), **p < 0.01, control 100 ± 5.4), the mrna remaining at 1 µM stood at 68.8 ± 16.4%. The “prevention of kainic acid-induced neuronal damage” value in the series with hippocampal CA1 neurons was “capable of preventing kainic acid-induced neuronal damage”. For the same compound, the “SOD1 gene expression” value in the series on SOD1 mRNA, PC12 cells [3] (PC12 cells) was “stimulate SOD1 gene expression”. Also, the SOD1 mRNA level, % of control at 1 µM with SOD1 mRNA, PC12 cells [3] (Rattus norvegicus, PC-12, 1 μM, 24 hours, Mean ± SD (n = 4), **p < 0.01, control 100 ± 20) stood at 184 ± 41%. For the same compound, at mouse brain MAO-B (i.p., compared with R-2HMP), the “inhibitory effect on mouse brain MAO-B” value is “weaker inhibitory effect”. The “Comparison to most effective inhibitor” value at mouse brain MAO-B (i.p.) is recorded as 5%. Besides, the “ED50 value fold higher than that of R-2HMP” value on mouse brain MAO-B (mouse brain MAO-B, i.p.) is given as 20 fold. Moreover, the ED50 on mouse brain MAO-B stood at 4 mg/kg. Besides, the “HSP70 expression” value in the series on HSP70 (setting [7]) is “able to block the expression of both genes”. In addition, the “HSP70 (Kainate + compound)” value in the series with HSP70 (setting [8]) turned out to be 4.6 ± 2.0. Besides, the “delayed c-Fos expression” value in the series on c-Fos (setting [7]) was “able to block the expression of both genes”. Also, the “Delayed c-Fos (Kainate + compound)” value with c-Fos (setting [8]) amounted to 4.5 ± 3.7. In [4], the “Comparison to most effective MAO-B inhibitor in group” value is 0.8% and the midpoint of inhibition, the IC50, lay at 4 µM.
In the case of `CN[C@@H](C)Cc1ccccc1` [methamphetamine], the neurotoxicity entry in series [1] is “neurotoxic even at quite low concentrations”.
With `C=C(C)[C@H]1CN[C@H](C(=O)O)[C@H]1CC(=O)O` [Kainate, kainic acid], the “HSP70 (Kainate alone)” value with HSP70 (setting [9]) worked out at 10.8 ± 3.1. Besides, in the series on c-Fos (setting [9]), the “Delayed c-Fos (Kainate alone)” value is listed as 18.0 ± 4.5.
Regarding `CCCC(C(=O)OCCN(CC)CC)(c1ccccc1)c1ccccc1` [proadifen], in the series with damaged neurons (pretreatment with P450 inhibitor), the “effect on P450-dependent neurorescue properties of deprenyl” value was “eliminates the neurorescue properties of deprenyl”.
With NGF: NGF, the “SOD1 mRNA induction (previous findings)” value with SOD1 mRNA, PC12 cells [5] is listed as “can induce SOD1 mRNA in a dose dependent manner”.
For `Nc1ccn([C@@H]2O[C@H](CO)[C@@H](O)[C@@H]2O)c(=O)n1` [Ara C, cytosine arabinoside], in the series “in vitro”, the MCC at 24 h was > 150 µM. In addition, in series [6] (Ara C 100 μM, mean ± sem of 4 cultures), the “Percent Apoptotic Nuclei (Ara C alone)” value worked out at 14.6 ± 0.9%.
With `C#CCNC(C)Cc1ccccc1` (stereo not drawn) [Desmethyldeprenyl], the “anti-apoptotic / neurorescue activity” value with damaged neurons is “active as an anti-apoptotic drug”.
With `C#CCN(C)[C@H](C)CCCCC` [Example R-2HMP, (R)-N-(2-heptyl)-N-methyl-propargylamine], in series [2], the “mean survival of CA1 neurons, percentage of vehicle treated controls (Table 2)” value is 239 ± 35% and the “activity in the hypoxia/ischaemia model” value was “shows significant activity”. Further, in series [2] (Rattus norvegicus, Neuron, sc), the response vs control in vivo at 0.1 µmol/kg was 239 ± 35%. In series [2] (Rattus norvegicus, Neuron, sc, subcutaneous administration), this compound displayed an ED50 of 0.001 to 0.01 µmol/kg. Besides, the “Comparison to most effective inhibitor” value at mouse brain MAO-B (i.p.) is 100%. Further, the “potency relative to R-deprenyl” value on mouse brain MAO-B (mouse brain MAO-B, i.p., fold more potent than R-deprenyl) turned out to be 2.5 fold. Moreover, the ED50 on mouse brain MAO-B (PE 1.9 × 10^-5 M, i.p., striata two hours after administration, estimated from dose-response curves) is 0.2 mg/kg. Further, the “blocking of Ara C induced apoptosis” value in series [6] (10^-7 M (FIG. 1c)) is “completely blocked”. In series [6] (Rattus norvegicus, inhibition of Ara C induced apoptosis (FIG. 1a, 1b)), this compound showed an EC50 of 0.001 to 0.1 µM. Also, the “Percent Apoptotic Nuclei (Control + compound)” value in series [6] (no Ara C, R-2HMP 100 nM, S-2HMP 10 μM, S-2HPA 10 μM, mean ± sem of 4 cultures, control 4.2 ± 0.3) is 4.8 ± 0.7%. The “Percent Apoptotic Nuclei (Ara C + compound)” value in [6] (with Ara C 100 μM, R-2HMP 100 nM, S-2HMP 10 μM, S-2HPA 10 μM, mean ± sem of 4 cultures, *P < 0.05 compared to Ara C alone) was 6.3 ± 0.8%. In [4], the “Comparison to most effective MAO-B inhibitor in group” value came to 100% and the IC50 is 0.03 µM.
As to `C#CCNC1CCc2ccccc21` (stereo not drawn) [N-propargyl-1-aminoindan], the “in vitro neuronal survival after glutamate toxicity” value with neurons is “effective in enhancing the in vitro neuronal survival”.
